From patent US10940156B2, “Neuroactive steroids, compositions, and uses thereof” (Sage Therapeutics, Inc., priority 2016, dated 2021)

Columns and labels:
[1] = tested on: dogs; experiment: 14-day dog toxicology study; format: in vivo
Protocol: (§1) The compound was assessed in 14-day rat and dog toxicology studies with daily administration of Compound 9 as a solution in HPBCD in dogs and Labrasol® in rats.
(§2) The NOAEL in rats was 3 mg/kg (females) and 22.5 mg/kg (males), and was 2.5 mg/kg in dogs. […] A single observation of mortality occurred in one female rat at the high dose in a toxicokinetic study which was suspected to have been related to exaggerated pharmacology.

[2] = 14-day dog toxicology study; format: in vivo; conditions: dog, in vivo; dogs; 14-day daily administration, solution in HPBCD
Protocol: as §1, §2

[3] = tested on: rats; experiment: 14-day rat toxicology study; format: in vivo
Protocol: as §1, §2

[4] = 14-day rat toxicology study; format: in vivo; conditions: for NOAEL at 14 days: in vivo, 14-day daily administration, solution in Labrasol
Protocol: as §1, §2

[5] = tested on: seizures arising from chemoconvulsants, proconvulsant stimuli, and genetic predisposition; experiment: preclinical anticonvulsant models; format: in vivo, rodents; conditions: oral
Protocol: FIGS. 3A and 3B depict exemplary preclinical anticonvulsant efficacy in rodents.
as §1

[6] = tested on: healthy volunteers; experiment: Phase I multiple ascending dose (MAD) study: MOAA/S sedation; format: in vivo, human
Excerpt: Example 3. Phase I, Double-Blind, Placebo-Controlled, Multiple Ascending Dose Study to Determine Safety, Tolerability, Pharmacokinetics and Pharmacodynamics of Compound 9 Oral Solution in Healthy Volunteers
This study comprises a double blind, placebo-controlled multiple ascending dose (MAD) study followed by an open-label drug-drug interaction study (DDI) without placebo in healthy, adult volunteers. Four cohorts of 12 subjects each will be recruited for a total of 48 subjects. Subjects in Cohorts 1, 2, and 3 will participate in the multiple-ascending-dose (MAD) part of the study, and subjects in Cohort 4 will participate in the drug-drug-interaction (DDI) part of the study.
The objective of the MAD part of the study is to determine the safety, tolerability, pharmacokinetics (PK), and pharmacodynamic (PD) profile of seven days of dosing with Compound 9 Oral Solution (henceforth referred to as Compound 9).
The MOAA/S allows exploration of deeper sedation states than the SSS. All time points are relative to the time of dosing. If the planned time point is between the hours of 22:00 h and 08:00 h each day or if the subject has been discharged before the +72 hour time point, the assessment need not be conducted at that time point. If a subject is difficult to awaken, an additional MOAA/S assessment may be performed at the discretion of the PI. Any MOAA score of 3 or less must be repeated. […]

[7] = tested on: healthy volunteers; experiment: Phase I single ascending dose (SAD) study: MOAA/S sedation and adverse events; format: in vivo, human
Excerpt: Example 2. A Phase I, Double-Blind, Placebo-Controlled, Single Ascending Dose Study to Determine the Maximum Tolerated Dose (MTD), Pharmacokinetics and Pharmacodynamics of Compound 9 Oral Solution in Healthy Volunteers and the Safety, Tolerability, and Pharmacokinetics of Compound 9 in Subjects with Essential Tremor
This four-part study will assess the effects of a single dose of Compound 9. The initial part of the study is a double-blind, placebo-controlled single ascending dose (SAD) design in healthy, adult volunteers with the objective of identifying the maximum tolerated dose (MTD) and pharmacokinetic (PK) profiles of Compound 9 Oral Solution. Escalation to the next dose will be undertaken only after safety and PK data have been reviewed by the Safety Review Committee (SRC) and agreement reached that it is safe to increase the dose. The SRC will not receive any unblinded PK data unless it is agreed upon by the SRC to unblind a subject and/or cohort based on the completed safety review.
In each of the SAD cohorts, subjects will be randomly assigned to receive either Compound 9 (six subjects) or placebo (two subjects) in a blinded manner. Cohort 1 will receive Dose 1, Cohort 2 will receive Dose 2, and so on. With the exception of the Food cohort, study drug will be administered in a fasting state (no food and only water for the previous 12 hours) and a standard Phase 1 unit diet will be administered beginning approximately four to five hours after dosing. […]
The MOAA/S allows exploration of deeper sedation states than the SSS. […] If a MOAA/S score of 3 or less (≤3) is observed, confirm the score by waiting approximately 10 minutes and readministering the MOAA/S assessment. […]

[8] = toxicology and safety pharmacology studies across species; format: in vivo
Protocol: as §1
Expected risks are those identified during the toxicology and safety pharmacology studies for Compound 9 and clinical study Example 2. […] This will be monitored in the clinical study using two scales, one designed to monitor “sleepiness” (Stanford Sleepiness Scale) and one to monitor deeper sedation (Modified Observer's Assessment of Alertness/Sedation).

[9] = male and female rats, non-adverse, reversible, without microscopic correlates

Compound: C[C@@]1(O)CC[C@H]2[C@H](CC[C@@H]3[C@@H]2CC[C@]2(C)[C@@H](C(=O)Cn4cc(C#N)cn4)CC[C@@H]32)C1 [Compound 9]
- adverse effects in main toxicology study [1]: no adverse effects
- core body temperature [1]: transient decreases in core body temperature
- heart rate [1]: transient increases in heart rate
- renal microscopic finding ([1]; well-documented vehicle effect): minimal renal tubular vacuolation
- NOAEL at 14 days [2]: 2.5 mg/kg
- mortality ([3]; female rat, high dose, toxicokinetic study, suspected related to exaggerated pharmacology): one
- increases in AST/ALT ([3]; high dose male and female rats): < 2 fold
- microscopic liver finding ([3]; high dose male and female rats): increased incidence of minimal hepatocellular vacuolation
- APTT [3, 9]: slight prolongation of APTT
- urine pH [3, 9]: slight increase in urine pH
- adverse effects in main toxicology study ([3]; rats): no adverse effects
- AUC at 14 day ([4]; plasma, 22.5 mg/kg, male rat 14-day toxicology, read-out: AUC at lowest NOAEL exposure in toxicology studies): 5050 ng·h/mL
- NOAEL at 14 days ([4]; rat, female rats): 3 mg/kg
- NOAEL at 14 days ([4]; rat, male rats): 22.5 mg/kg
- Cmax ([4]; rat, plasma, 3 mg/kg, female rats, Day 14, read-out: estimated human Cmax based on the lowest NOAEL Day 14 Cmax in female rats): 400 ng/mL
- anticonvulsant activity [5]: orally active in preclinical anticonvulsant models, and suppressed seizures
- subjects with MOAA/S scores of 1 or 2 (deep sedation) ([6]; 35 mg group, all at 1 hour post-dose): two
- mean MOAA/S ([6]; by 4 hours post-dose): approached baseline values
- subjects with MOAA/S ≤2 ([7]; 55 mg single dose, stopping criteria not met): 2 subjects
- subjects with MOAA/S ≤2 ([7]; 66 mg single dose, stopping criteria met): 2 subjects
- adverse events possibly or probably related to the study drug ([7]; five SAD cohorts dosed, oral solution, study ongoing): mild drowsiness, mild confusion, somnolence, headache, orthostatic heart rate increase, aloofness, anxiety, sore throat and mild abdominal discomfort
- most common drug-related effect ([8]; across species, studies and doses): dose-related sedation
- manifestations of exaggerated pharmacology ([8]; nonclinical studies): sedation and ataxia
